Source: US10940139B2, “Compounds that interact with the Ras superfamily for the treatment of cancers, inflammatory diseases, rasopathies, and fibrotic disease” (Shy Therapeutics LLC, priority 2017, dated 2021)
Like-named read-outs stand apart in the source and are kept apart here.

Legend:
Assay in all cases: Ras GTP binding domain inhibition assay (labeled GTP)
KRas G12D mutant protein = KRas G12D mutant protein (Homo sapiens (Human), UniProt P01116, G12D)
KRas G12C mutant = KRas G12C mutant (Homo sapiens (Human), UniProt P01116, G12C)
Sequence of KRas G12C mutant (P01116-2 other isoform, or with tags, fused parts or gaps G12C): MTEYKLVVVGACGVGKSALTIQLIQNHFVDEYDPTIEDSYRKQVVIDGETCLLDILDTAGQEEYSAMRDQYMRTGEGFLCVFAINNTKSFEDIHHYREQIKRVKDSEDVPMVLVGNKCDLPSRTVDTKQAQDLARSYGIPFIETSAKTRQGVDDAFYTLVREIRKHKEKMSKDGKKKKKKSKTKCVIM
Summary of the method: (§1)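 Ni-plate capture of His-KRas (3-10 μg/ml, o/n, 4° C); Tris pH 7.5/MgCl2/DTT buffer, 1% DMSO. Cpd 20 μM or titration, 3 h RT. Cy3/Cy5-GTP 45 min RT, wash, fluorescence of bound GTP.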

[1] = biological target: KRas G12D/Q61H double mutant (Homo sapiens (Human), UniProt P01116, G12D/Q61H)
Sequence of KRas G12D/Q61H double mutant (P01116-2 other isoform, or with tags, fused parts or gaps G12D/Q61H): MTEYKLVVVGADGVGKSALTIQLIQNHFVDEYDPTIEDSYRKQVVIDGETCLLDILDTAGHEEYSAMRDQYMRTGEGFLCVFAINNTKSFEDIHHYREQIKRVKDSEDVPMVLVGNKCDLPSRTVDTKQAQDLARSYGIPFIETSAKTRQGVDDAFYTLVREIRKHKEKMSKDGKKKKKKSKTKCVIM
Summary of the method: as §1

KRas wild type = KRas wild type (Homo sapiens (Human), UniProt P01116)
Sequence of KRas wild type (P01116-2 other isoform, or with tags, fused parts or gaps): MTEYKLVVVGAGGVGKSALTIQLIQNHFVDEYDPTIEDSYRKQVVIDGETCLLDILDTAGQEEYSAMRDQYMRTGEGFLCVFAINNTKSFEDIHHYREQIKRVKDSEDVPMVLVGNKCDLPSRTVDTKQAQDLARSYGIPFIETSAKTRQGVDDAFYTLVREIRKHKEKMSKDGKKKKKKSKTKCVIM
Summary of the method: as §1

[2] = biological target: KRas G12C/Q61H double mutant (Homo sapiens (Human), UniProt P01116, G12C/Q61H); conditions: 20 μM compound; read-out: % Inhibition at 20 μM KRas G12C Q61H
Sequence of KRas G12C/Q61H double mutant (P01116-2 other isoform, or with tags, fused parts or gaps G12C/Q61H): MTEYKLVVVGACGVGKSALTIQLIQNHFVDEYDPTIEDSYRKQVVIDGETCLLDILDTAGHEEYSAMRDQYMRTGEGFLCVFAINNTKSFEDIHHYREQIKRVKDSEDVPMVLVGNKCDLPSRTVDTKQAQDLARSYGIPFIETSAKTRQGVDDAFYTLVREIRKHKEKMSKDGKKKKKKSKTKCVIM
Summary of the method: as §1

KRas Q61H mutant = KRas Q61H mutant (Homo sapiens (Human), UniProt P01116, Q61H); conditions: 20 μM compound; read-out: % Inhibition at 20 μM KRas Q61H
Sequence of KRas Q61H mutant (P01116-2 other isoform, or with tags, fused parts or gaps Q61H): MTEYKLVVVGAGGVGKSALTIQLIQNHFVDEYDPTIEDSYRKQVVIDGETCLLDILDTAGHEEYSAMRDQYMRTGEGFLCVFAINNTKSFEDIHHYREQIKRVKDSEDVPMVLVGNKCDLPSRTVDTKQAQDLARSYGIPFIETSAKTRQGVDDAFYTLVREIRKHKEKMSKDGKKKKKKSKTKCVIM
Summary of the method: as §1

[3] = 20 μM, read-out: KRas G12D % Inh.
[4] = 20 μM, read-out: KRas G12C % Inh.
[5] = 20 μM, read-out: KRas G12D Q61H % Inh.
[6] = 20 μM, read-out: KRas wild type, % Inh.
[7] = 20 μM compound, read-out: % Inhibition at 20 μM KRas G12D
[8] = 20 μM compound, read-out: % Inhibition at 20 μM KRas G12C
[9] = 20 μM compound, read-out: % Inhibition at 20 μM KRas G12D Q61H
[10] = 20 μM compound, read-out: % Inhibition at 20 μM KRas wild type

Sequence of KRas G12D mutant protein (P01116-2 other isoform, or with tags, fused parts or gaps G12D): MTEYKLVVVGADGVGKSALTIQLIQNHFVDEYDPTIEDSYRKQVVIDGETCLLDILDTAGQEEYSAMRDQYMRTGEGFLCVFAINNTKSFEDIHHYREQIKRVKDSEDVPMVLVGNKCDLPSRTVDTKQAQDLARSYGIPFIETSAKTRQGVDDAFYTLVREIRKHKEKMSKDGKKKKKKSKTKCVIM

Compound | inhibition at 20 µM (KRas G12D mutant protein; [3]) [%] | inhibition at 20 µM (KRas G12C mutant; [4]) [%] | inhibition at 20 µM [1, 5] [%] | inhibition at 20 µM (KRas wild type; [6]) [%] | inhibition at 20 µM (KRas G12D mutant protein; [7]) [%] | inhibition at 20 µM (KRas G12C mutant; [8]) [%] | inhibition at 20 µM [1, 9] [%] | inhibition at 20 µM (KRas wild type; [10]) [%] | also measured
O=C(Nc1nc(-c2ccccn2)cs1)c1ccncc1 [drawing 2578] | 51 to 75 | 51 to 75 | 51 to 75 | 51 to 75 | – | – | – | – | –
COc1cccc(C(=O)Nc2nc(-c3ccccn3)cs2)c1 [drawing 2580] | 51 to 75 | 51 to 75 | 51 to 75 | 25 to 50 | – | – | – | – | –
COc1ccc(C(=O)Nc2nc(-c3ccccn3)cs2)cn1 [drawing 2581] | 76 to 100 | 51 to 75 | 51 to 75 | 51 to 75 | – | – | – | – | –
O=c1nc(-c2ccccn2)[nH]c2scc(-c3ccccc3Cl)c12 [drawing 2585] | 51 to 75 | 25 to 50 | 51 to 75 | 25 to 50 | – | – | – | – | –
O=c1nc(-c2ccccn2)[nH]c2c1CCC2 [drawing 2591] | 51 to 75 | 25 to 50 | 51 to 75 | 25 to 50 | – | – | – | – | –
Cc1cc2c(=O)nc(-c3cc(OCC(F)F)ccn3)[nH]c2s1 [drawing 2593] | 51 to 75 | 25 to 50 | 76 to 100 | 25 to 50 | – | – | – | – | –
OCCNc1nc(-c2ccccn2)nc2scc(-c3ccccc3)c12 [drawing 2603] | 51 to 75 | 1 to 25 | 25 to 50 | 1 to 25 | – | – | – | – | –
COCC(C)Nc1nc(-c2ccccn2)nc2sc(C)c(-c3ccccc3)c12 (centres unmarked) [drawing 2604] | 51 to 75 | 25 to 50 | 51 to 75 | 25 to 50 | – | – | – | – | –
CC(O)CNc1nc(-c2ccccn2)nc2scc(-c3ccccc3)c12 (centres unmarked) [drawing 2607] | 51 to 75 | 1 to 25 | 51 to 75 | 25 to 50 | – | – | – | – | –
NC(=O)C1(CNc2nc(-c3ccccn3)nc3c2CCC3)CCCC1 [drawing 2608] | 51 to 75 | 25 to 50 | 51 to 75 | 25 to 50 | – | – | – | – | –
OCCOCCNc1nc(-c2ccccn2)nc2scc(-c3ccccc3)c12 [drawing 2609] | 25 to 50 | 25 to 50 | 51 to 75 | 25 to 50 | – | – | – | – | –
Cc1sc2nc(-c3ccccn3)nc(NCCCO)c2c1-c1ccccc1 [drawing 2610] | 51 to 75 | 51 to 75 | 51 to 75 | 25 to 50 | – | – | – | – | –
COC(=O)c1cccc(CN2CCC(CSc3ccccc3)C2)c1C#N (centres unmarked) [drawing 2611] | 1 to 25 | 25 to 50 | 25 to 50 | 1 to 25 | – | – | – | – | –
COC(=O)c1cc(NCc2nc(CC(C)C)no2)ccc1Cl [drawing 2612] | 51 to 75 | 25 to 50 | 51 to 75 | 1 to 25 | – | – | – | – | –
Cc1cccc(CN(Cc2ccccn2)Cc2nccn2C)c1 [drawing 2613] | 51 to 75 | 25 to 50 | 51 to 75 | 25 to 50 | – | – | – | – | –
COc1ccc(CCC(=O)N2CCCc3c(O)nc(-c4ccccn4)nc32)cc1 [drawing 2640] | 25 to 50 | 51 to 75 | 51 to 75 | 25 to 50 | – | – | – | – | –
Oc1nc(-c2ccccn2)nc2c(Br)csc12 [drawing 2673] | – | – | – | – | 25 to 50 | 25 to 50 | 51 to 75 | 25 to 50 | –
O=C(c1csc2c(O)nc(-c3ccccn3)nc12)N1CCN(c2ccccc2)CC1 [drawing 2680] | – | – | – | – | 51 to 75 | 25 to 50 | 76 to 100 | 51 to 75 | IC50 ([1]; serial dilution, read-out: KRas G12D Q61H (classes E-H, IC50)): 5 to 10 µM
Oc1nc(-c2ccccn2)nc2c(-c3ccccc3Cl)csc12 [drawing 2695] | – | – | – | – | 25 to 50 | 25 to 50 | 51 to 75 | 1 to 25 | inhibition at 20 µM [2]: 51 to 75%; inhibition at 20 µM (KRas Q61H mutant): 51 to 75%
COCCNc1nc(-c2nccn2C)nc2sc(-c3ccccc3)c(-c3ccccc3)c12 [drawing 3535] | – | – | – | – | – | – | – | – | inhibition at 20 µM (KRas G12D mutant protein; 20 μM compound, KRas G12D, read-out: % Inhibition at 20 μM of K-Ras mutant and wild-type protein, KRas G12D): 76 to 100%; inhibition at 20 µM (KRas G12C mutant; 20 μM compound, KRas G12C, read-out: % Inhibition at 20 μM of K-Ras mutant and wild-type protein, KRas G12C): 51 to 75%; inhibition at 20 µM ([1]; 20 μM compound, KRas G12D/Q61H double mutant, read-out: % Inhibition at 20 μM of K-Ras mutant and wild-type protein, KRas G12D Q61H): 51 to 75%; inhibition at 20 µM (KRas wild type; 20 μM compound, KRas wild type, read-out: % Inhibition at 20 μM of K-Ras mutant and wild-type protein, KRas wild type): 1 to 25%

Further lines, with some results ahead:

inhibition at 20 µM (KRas G12D mutant protein; [3]) [%] | inhibition at 20 µM (KRas G12C mutant; [4]) [%] | inhibition at 20 µM [1, 5] [%] | inhibition at 20 µM (KRas wild type; [6]) [%] | inhibition at 20 µM (KRas G12D mutant protein; [7]) [%] | inhibition at 20 µM (KRas G12C mutant; [8]) [%] | inhibition at 20 µM [1, 9] [%] | inhibition at 20 µM (KRas wild type; [10]) [%] | Compound | also measured
51 to 75 | 51 to 75 | 76 to 100 | 25 to 50 | – | – | – | – | O=C(c1ccc2ccccc2n1)N1CCCc2c(O)nc(-c3ccccn3)nc21 [drawing 2642] | –
51 to 75 | 25 to 50 | 76 to 100 | 25 to 50 | – | – | – | – | O=C(c1ccn(-c2ccccc2)n1)N1CCCc2c(O)nc(-c3ccccn3)nc21 [drawing 2644] | –
– | – | – | – | 51 to 75 | 25 to 50 | 25 to 50 | 51 to 75 | O=C(c1ccc(=O)[nH]n1)N1CCCc2c(O)nc(-c3ccccn3)nc21 [drawing 2646] | –
– | – | – | – | 51 to 75 | 25 to 50 | 76 to 100 | 51 to 75 | O=C(OCCc1ccccc1)N1CCCc2c(O)nc(-c3ccccn3)nc21 [drawing 2653] | –
– | – | – | – | 25 to 50 | 25 to 50 | 51 to 75 | 25 to 50 | O=C(c1ccccn1)N1CCCc2c(O)nc(-c3ccccn3)nc21 [drawing 2655] | –
– | – | – | – | 51 to 75 | 51 to 75 | 51 to 75 | 51 to 75 | O=C(c1csc2c(O)nc(-c3ccccn3)nc12)N1CCC(N2CCCC2=O)CC1 [drawing 2679] | –
– | – | – | – | 51 to 75 | 25 to 50 | 51 to 75 | 51 to 75 | O=C(c1csc2c(O)nc(-c3ccccn3)nc12)N1CCN(c2ccncc2)CC1 [drawing 2681] | –
– | – | – | – | 51 to 75 | 25 to 50 | 51 to 75 | 76 to 100 | O=C(c1csc2c(O)nc(-c3ccccn3)nc12)N1CCC(c2cccnc2)CC1 [drawing 2682] | –
– | – | – | – | 51 to 75 | 25 to 50 | 25 to 50 | 51 to 75 | CC1(O)CCN(C(=O)c2csc3c(O)nc(-c4ccccn4)nc23)CC1 [drawing 2683] | –
– | – | – | – | 51 to 75 | 76 to 100 | 76 to 100 | 25 to 50 | CC1(N)CCN(C(=O)c2csc3c(O)nc(-c4ccccn4)nc23)CC1 [drawing 2684] | –
– | – | – | – | 51 to 75 | 51 to 75 | 76 to 100 | 25 to 50 | O=C(c1csc2c(O)nc(-c3ccccn3)nc12)N(CCO)CCOCCO [drawing 2687] | –
– | – | – | – | 51 to 75 | 25 to 50 | 51 to 75 | 76 to 100 | O=C(NCCc1cccnc1)c1csc2c(O)nc(-c3ccccn3)nc12 [drawing 2689] | –
– | – | – | – | 51 to 75 | 25 to 50 | 51 to 75 | 51 to 75 | Oc1nc(-c2ccccn2)nc2c1ncn2-c1ccccc1 [drawing 2697] | –
– | – | – | – | 51 to 75 | 25 to 50 | 51 to 75 | 51 to 75 | Oc1nc(-c2ccccn2)nc2scc(Br)c12 [drawing 2703] | inhibition at 20 µM [2]: 51 to 75%; inhibition at 20 µM (KRas Q61H mutant): 76 to 100%
– | – | – | – | 51 to 75 | 51 to 75 | 25 to 50 | 25 to 50 | c1ccc(-c2nc(NCC3CCCO3)c3ccsc3n2)nc1 (centres unmarked) [drawing 2705] | –
– | – | – | – | 51 to 75 | 25 to 50 | 25 to 50 | 1 to 25 | COCCC(C)Nc1nc(-c2ccccn2)nc2sccc12 (centres unmarked) [drawing 2709] | –
– | – | – | – | 25 to 50 | 25 to 50 | 25 to 50 | 1 to 25 | COCCCCNC(=O)c1csc2nc(-c3ccccn3)nc(N3CCN(C)CC3)c12 [drawing 2739] | –
– | – | – | – | 51 to 75 | 51 to 75 | 51 to 75 | 51 to 75 | O=C(c1csc2c(O)nc(-c3ccccn3)nc12)N1CCOC(c2ccc(F)cc2)C1 (centres unmarked) [drawing 2743] | –
– | – | – | – | 25 to 50 | 25 to 50 | 1 to 25 | 25 to 50 | NC(=O)Cn1cnc2nc(-c3ccccn3)nc(N3CCOCC3)c21 [drawing 2825] | –
